According to the supplement of paper PMC11061612:

Assays:
[1] = tested on: SK-UT-1 (Other Solid Carcinomas); experiment: combination Emax (second highest fraction inhibited in the dose matrix, 72 h); higher = more inhibition; extreme values may be limits of the assay
Procedure, shortened: (§1)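 Bliss excess equals the observed combination effect minus the expected value EA + EB − EA·EB, where EA and EB are the effects of each agent alone. Combination Emax is the second-highest inhibition within the matrix. Inhibition was scaled from CellTiter-Glo 2.0 luminescence, with 0 set by vehicle wells and 1 by blank wells, after 72 hours of two-drug dosing of cells plated in 1536-well plates.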

[2] = tested on: HOP-92 (Non-Small Cell Lung Carcinoma); experiment: as above
Procedure, shortened: as §1

[3] = tested on: NCI-H1688 (Small Cell Lung Carcinoma); experiment: as above
Procedure, shortened: as §1

[4] = tested on: P31-FUJ (Acute Myeloid Leukemia); experiment: as above
Procedure, shortened: as §1

D-392MG (Glioblastoma) [5] = experiment: as above
Procedure, shortened: as §1

[6] = tested on: BICR78 (Oral Cavity Carcinoma); experiment: as above
Procedure, shortened: as §1

[7] = tested on: SK-UT-1 (Other Solid Carcinomas); experiment: Bliss excess, mean over the matrix (fraction); higher = more synergy
Procedure, shortened: as §1

[8] = tested on: HOP-92 (Non-Small Cell Lung Carcinoma); experiment: as above
Procedure, shortened: as §1

EW-22 (Ewing's Sarcoma) = experiment: as above
Procedure, shortened: as §1

[9] = tested on: D-283MED (Other Solid Carcinomas); experiment: as above
Procedure, shortened: as §1

[10] = tested on: HLE (Hepatocellular Carcinoma); experiment: as above
Procedure, shortened: as §1

[11] = tested on: U-118-MG (Low Grade Glioma); experiment: as above
Procedure, shortened: as §1

[12] = tested on: DOK (Oral Cavity Carcinoma); experiment: as above
Procedure, shortened: as §1

HCC38 (Breast Carcinoma) = experiment: as above
Procedure, shortened: as §1

[13] = tested on: P31-FUJ (Acute Myeloid Leukemia); experiment: as above
Procedure, shortened: as §1

HuO9 (Osteosarcoma) = experiment: as above
Procedure, shortened: as §1

[14] = tested on: SW948 (Colorectal Carcinoma); experiment: as above
Procedure, shortened: as §1

MCF7 (Breast Carcinoma) = experiment: as above
Procedure, shortened: as §1

D-392MG (Glioblastoma) [15] = experiment: as above
Procedure, shortened: as §1

[16] = tested on: SW48 (Colorectal Carcinoma); experiment: as above
Procedure, shortened: as §1

| SMILES | combination Emax [1] | combination Emax [2] | combination Emax [3] | combination Emax [4] | combination Emax (D-392MG (Glioblastoma) [5]) | combination Emax [6] | Bliss excess [7] | Bliss excess [8] | Bliss excess (EW-22 (Ewing's Sarcoma)) | Bliss excess [9] | Bliss excess [10] | Bliss excess [11] | Bliss excess [12] | Bliss excess (HCC38 (Breast Carcinoma)) | Bliss excess [13] | Bliss excess (HuO9 (Osteosarcoma)) | Bliss excess [14] | Bliss excess (MCF7 (Breast Carcinoma)) | Bliss excess (D-392MG (Glioblastoma) [15]) | Bliss excess [16] |
| --- | --- | --- | --- | --- | --- | --- | --- | --- | --- | --- | --- | --- | --- | --- | --- | --- | --- | --- | --- | --- |
| Cn1cnc2c(F)c(Nc3ccc(Br)cc3Cl)c(C(=O)NOCCO)cc21 [Selumetinib] + C=CCn1c(=O)c2cnc(Nc3ccc(N4CCN(C)CC4)cc3)nc2n1-c1cccc(C(C)(C)O)n1 [AZD1775] (first compound max 10 µM, partner max 1 µM) | 0.58 | 0.503 | 0.525 | 0.935 | 0.263 | 0.344 | -0.0042 | -0.056 | -0.0632 | -0.0295 | -0.0358 | -0.061 | 0.0043 | -0.0768 | -0.0064 | -0.0824 | -0.0258 | -0.079 | -0.0367 | 0.0116 |
| Cn1cnc2c(F)c(Nc3ccc(Br)cc3Cl)c(C(=O)NOCCO)cc21 [Selumetinib] + CC(C)n1c(=O)n(C)c2cnc3cc(F)c(-c4ccc(OCCCN5CCCCC5)nc4)cc3c21 [AZD1390] (first compound max 10 µM, 7x7, partner max 0.3 µM) | 0.153 | 0.402 | 0.223 | 0.555 | 0.145 | 0.3 | -0.0066 | -0.0112 | -0.0304 | -0.0123 | -0.0325 | -0.0587 | 0.021 | -0.0306 | 0.0398 | 0.0143 | -0.0174 | -0.0452 | -0.02 | -0.0561 |
| Cn1cnc2c(F)c(Nc3ccc(Br)cc3Cl)c(C(=O)NOCCO)cc21 [Selumetinib] + CCN(CCO)CCCOc1ccc2c(Nc3cc(CC(=O)Nc4cccc(F)c4)[nH]n3)ncnc2c1 [AZD2811] (first compound max 10 µM, 7x7, partner max 1 µM) | 0.328 | 0.495 | 0.169 | 0.951 | 0.197 | 0.322 | 0.0021 | -0.0193 | -0.0426 | -0.0022 | -0.0029 | -0.027 | -0.0864 | -0.0748 | -0.0136 | -0.0201 | 0.0022 | -0.0309 | -0.0304 | -0.0168 |
| Cn1cnc2c(F)c(Nc3ccc(Br)cc3Cl)c(C(=O)NOCCO)cc21 [Selumetinib] + C[C@@H]1COCCN1C2=NC(=NC(=C2)C3(CC3)[S@](=N)(=O)C)C4=C5C=CNC5=NC=C4 [AZD6738] (first compound max 10 µM, 7x7, partner max 10 µM) | 0.801 | 0.398 | 0.165 | 0.948 | 0.302 | 0.592 | -0.0511 | -0.0029 | -0.028 | -0.0564 | -0.0665 | 0.0263 | 0.0628 | -0.0706 | -0.0802 | 0.0042 | -0.0114 | -0.0558 | 0.0013 | -0.017 |
| CC(=O)Nc1cccc(-n2c(=O)n(C3CC3)c(=O)c3c(Nc4ccc(I)cc4F)n(C)c(=O)c(C)c32)c1 [Trametinib] + Cc1nc(-c2cn3c(n2)-c2ccc(-c4cnn(C(C)(C)C(N)=O)c4)cc2OCC3)n(C(C)C)n1 [Taselisib] (first compound max 1 µM, 7x7, partner max 10 µM) | 0.597 | 0.988 | 0.628 | 0.915 | 0.709 | 0.726 | 0.0411 | 0.14 | -0.0042 | 0.119 | -0.0291 | -0.0083 | 0.0767 | 0.0219 | 0.182 | 0.0587 | 0.0126 | 0.0979 | 0.137 | 0.178 |
| CC1(C)CCC(CN2CCN(c3ccc(C(=O)NS(=O)(=O)c4ccc(NCC5CCOCC5)c([N+](=O)[O-])c4)c(Oc4cnc5[nH]ccc5c4)c3)CC2)=C(c2ccc(Cl)cc2)C1 [Venetoclax] + C1CN(CCC1(C(=O)N[C@@H](CCO)C2=CC=C(C=C2)Cl)N)C3=NC=NC4=C3C=CN4 [Capivasertib] (first compound max 1 µM, 7x7, partner max 3 µM) | 0.34 | 0.402 | 0.294 | 0.896 | 0.239 | 0.323 | 0.0153 | -0.0245 | 0.0137 | -0.0218 | -0.0132 | -0.0494 | -0.0532 | -0.0177 | 0.0141 | -0.0237 | -0.0718 | 0.0076 | -0.0437 | -0.0679 |
